Results from patent publication US3987055A, “Azasteroids compounds and derivatives” (The Board of Regents for the Oklahoma Agricultural & …, priority 1974, dated 1976).
Values joined by “and” are separate entries in the source; they are usually repeats but may differ in a detail not shown here. Equal values may be shown once. Numbered stars: 1 amine (or outer) side, 2 acyl side, 3 side chain; on linkers, the order of the positions; unused ones are H or OH. Bridge positions count the residues as written; N and C are the ends. Square brackets hold non-standard residues; d marks the D form. Peptide text beside a SMILES is read from it. I, II: the chains in the order shown. Actinocin(9to1) = Cc1c2oc3c(C)ccc(C(=O)[*:1])c3nc-2c(C(=O)[*:2])c(N)c1=O; NMeV = CN[C@H](C(=O)O)C(C)C; Sar = CNCC(=O)O

Assays:
[1] = system: rat testis tubules; test: glucose oxidation (glucose-U-14C) by rat testis tubules in vitro; assay type: cell-based; details: for AVERAGE glucose oxidation: average of flasks; for depression of glucose oxidation in vitro: in words; for GLUCOSE OXIDATION per 100 mg / GLUCOSE OXIDATION per flask: individual flask, 250 mg per flask (so in the source), 2 hours, 33° C; for % DEVIATION FROM CONTROL, glucose oxidation: versus saline, 120 min
Protocol: (§1) For these investigations the compounds were diluted in a minimal amount of ethanol and further diluted in saline (0.85%) so that the final concentration was 1 mg/ml. The compounds were placed in solution and gassed under N2 and stored at 5° C until used 2 days later for the in vitro incubation studies. Details of the in vitro incubation procedures may be found in Endocrinology 89:791-800 (1971).
The effects of these compounds on glucose oxidation by testis tubules was examined by incubating about 200 mg of teased testis tubules from mature rats in a 25 ml Erlenmeyer flask containing 3 ml of Krebs Ringer bicarbonate buffer (pH 7.4), D-glucose-U-^14 C (0.5 μCi; 10mM) and 0.25 ml of the azasteroid (1 mg/ml) to be tested. The flasks were incubated for 2 hours at 33° C under 95% O2 :5% CO2. The reaction was terminated by adding 0.25 ml of 5 N H2 SO4. Carbon dioxide was trapped in 0.25 ml of hydroxide of Hyamine. The radioactivity present in the Hyamine was determined by liquid scintillation spectrometry. This table includes a detailed summary of the results obtained and an average for each compound. […] Thus, the compounds have potential for antifertility activity in the control of wild rodent populations and possibly stray animals such as dogs and cats.
CPM = counts per minute. Glucose-U-^14 C activity was 0.5 millicurie.
All compounds were tested in a concentration of 250 mg per flask.

[2] = effects on testis function: body, testis and seminal vesicle weight; assay type: in vivo, mice (ICR-Swiss adult male); details: average; 0.2 mg per day s.c., 10 days
Protocol: The compounds as shown in Table 7 were dissolved in a minimal amount of ethanol and diluted in sesame oil (1 mg/ml). After dilution, samples were stored at 5° C in the dark and flushed with N2 every 24 hours. The compounds were injected subcutaneously into adult male mice for a period of 10 days. Each mouse injected received a total dose of 2 mg over the 10 day period or 0.2 mg per day. The mice were random bred males of the ICR-Swiss strain and were used in the study when they reached 75±2 days of age. Mice were maintained in air-conditioned and light-controlled (14 hour light/24 hour) animal quarters and provided with lab food and water ad libitum. Animals were necropsied 24 hours after the last injection. Testes and seminal vesicles were excised, trimmed of adhering tissue and weighed fresh at the nearest one-tenth milligram.

[3] = system: rat testis tubules; test: lysine-U-14C incorporation into protein by rat testis tubules in vitro; assay type: cell-based; details: for AVERAGE OF TWO FLASK lysine incorporation: average of two flasks; for protein synthesis by teased testis tubules: in words; for lysine incorporation into protein per 100 mg / lysine incorporation into protein per flask: individual flask, 250 mg per flask (so in the source), 1 hour, 33° C
Protocol: as §1
The effects of the compounds on the incorporation of lysine -U-^14 C into trichloroacetic (TCA) precipitable protein of rat testes was investigated by incubating about 200 mg of teased testis tubules from mature rats in a 25 ml Erlenmeyer flask containing 3 ml of Krebs Ringer bicarbonate buffer (pH 7.4), L-lysine-U-^14 C (0.5 μCi; 0.1mM), glucose (10 mM) and 0.25 ml of the azasteroid to be tested. The flasks were incubated for 1 hour at 33° C under 95% O2 : 5% CO2 and the TCA precipitable protein was isolated and an aliquot used to measure radioactivity.
CPM = counts per minute. All compounds were tested in a concentration of […]

[4] = system: sarcoma 180 ascitis cells; test: antitumor activity, sarcoma 180 ascites in mice, survival; assay type: in vivo, mice (Swiss albino CD-1 female); details: i.p., 5 injections
Protocol: The test system utilized involved Swiss albino CD-1 female mice weighing 25-27 grams which were injected (i.p.) with 1 × 10^6 viable sarcoma 180 ascitis cells. Chemotherapy was initiated 24 hours post-injection with a protocol of five intra-peritonaeal injections at 24 hour intervals.
Animals were weighted at 24 hour intervals and the survival time recorded for each test group.

[5] = system: acid phosphatase, KB and L-M cells; test: relative acid phosphatase staining (permeability of lysosomal membrane) of KB and L-M cells; assay type: cell-based, human (KB) and mouse (L-M); design: key to Relative acid phosphatase staining: light: cells showing only a few scattered granules; medium: more dense but distinct isolated granules were still detected; heavy: a more intense staining with fewer discrete granules; details: 20 μg/ml
Protocol: KB and L-M cells were grown on coverslips in medium 199 with 10% calf serum for the 24 hour growth prior to staining in the presence or absence of compound 5c (20 μg/ml) or compound 5d (20 μg/ml). The cells were washed in Hanks' salt solution, incubated at 37° C in Gomori's substrate solution for 1, 2, or 3 hours, washed, treated with a 1% solution of ammonium sulfide, washed, mounted and observed microscopically. Light staining was designated as cells showing only a few scattered granules; medium staining was more dense but distinct isolated granules were still detected; and heavy staining a more intense staining with fewer discrete granules. Heavy staining denotes increased phosphatase activity.
The acid phosphatase activity was measured in KB and L-M cells grown in medium in the presence or absence compound 5c or 5d (20 μg/ml) for 2 or 24 hours prior to staining (Table 2). Quantitative evaluation of the relative staining intensity of the lysosomes was compared in the treated and untreated cells. […] Thus, cells grown in the presence of compound 5c accumulate the phosphatase substrate within the lysosomes much more rapidly than the control or compound 5d treated cells indicating the compounds ability to alter membrane permeability and thus regulate the accumulation of essential metabolites. Control of this cellular capacity permits regulation of cell division so important in cancer chemotherapy. Since the permeation of the substrate is the rate-limiting step in the phosphatase determination, compound 5c produces a modification of the lysosomal membrane which increased the permeability of the lysosome to the substrate. The results also emphasize the difference in biological activity of compound 5c and 5d type molecules which chemically are similar except at C-3. Differences in the biological activity have been observed when the compounds were tested using various bacteria.

[6] = system: KB cells; test: relative plating efficiency of KB cells (colony formation, 7 days); assay type: cell-based, human
Protocol: The KB cells were plated in plastic tissue culture dishes and grown in a 5% CO2 gas phase incubator for 7 days. The medium was removed, the plates washed with Hanks' salt solution and the cells stained with a 0.5% aqueous crystal violet solution, rinsed and dried. The colonies were counted and the relative plating efficiency calculated using the number of control colonies as 100 percent.

[7] = system: L-M cells; test: growth inhibition of mouse L-M cell line; assay type: cell-based
Protocol: Cells (1 × 10^5 /ml) were added to the "incubated" compound-containing medium.

[8] = system: Cells (1 × 10^5 /ml); test: potency after pre-incubation of compound in growth medium without cells; assay type: cell-based; details: 4 days
Protocol: To ascertain if the potency of compound 5d was reduced during the incubation in the growth medium in the absence of cells, compound 5d (20 μg/ml) was added to the medium and incubated at 37° C on a shaker for 4 days. Cells (1 × 10^5 /ml) were added to the "incubated" compound-containing medium. The inhibition pattern obtained from the "incubated" medium was identical to that obtained when compound 5d (20 μg/ml) was added simultaneously with the inoculation. […] Since the compounds are not inactivated by serum, their effectiveness for animal use or human tests is enhanced. This fact is stressed in animal studies recited in Example IX below.

[9] = system: KB cells; test: growth inhibition of human tumor KB cell line; assay type: cell-based; details: 10 μg/ml or greater, read-out: concentration at which growth was inhibited
Protocol: For example, growth of both the human tumor KB* and the mouse L-M** cell lines was inhibited when the cells were grown in media containing 10 μg/ml or greater

[10] = system: B. subtilis W23; test: antimicrobial activity in combination with selected antibiotics; assay type: cell-based; details: alone; B. subtilis W23
Protocol: Several antibiotics act at the cell surface. The antimicrobial activity of the hydroxybenzindazole in combination with selected antibiotics was measured.
Both Polymyxin (Pfizer, Inc.) and Circulin (Upjohn Co.) are surface active compounds thought to cause disorganization of the cell membrane leading to a loss of intracellular components. The enhanced antimicrobial activity observed with the combination of hydroxybenzindazole and antibiotics denotes a more pronounced distortion in the cell surface. Thus, much lower concentrations of the compounds can be used in medicinal applications providing an opportunity for toxic compounds to have greater medicinal applicability and use.
Failure of the mixture of hydroxybenzindazole and chloramphenicol to show an enhanced inhibition of growth could be correlated with the internal site of action of chloramphenicol, which is blockage of the binding of the 30s and 50s ribosomal subunits.

Structure (SMILES)	AVERAGE glucose oxidation [1]	depression of glucose oxidation in vitro [1]	GLUCOSE OXIDATION per 100 mg [1]	GLUCOSE OXIDATION per flask [1]	% DEVIATION FROM CONTROL, glucose oxidation [1]	Body Weight [2] [g]	Mg Testes Per g Body Wt. [2] [Mg per g]	Seminal Vesicle weight [2] [mg]	Testes Paired weight [2] [mg]	AVERAGE OF TWO FLASK lysine incorporation [3]	protein synthesis by teased testis tubules [3]	lysine incorporation into protein per 100 mg [3]	lysine incorporation into protein per flask [3]	further results
CC12CCc3cc(O)ccc3C1=NNC2=O (racemic) [Compound 4c]	8,705 CPM/100 mg TISSUE	comparable to saline	8,847 CPM/100 mg and 8,564 CPM/100 mg	17,350 CPM/FLASK and 17,325 CPM/FLASK	-19.94%	35.7	7.28	82.1	261.0	1,389 CPM/100 mg tissue	depress protein synthesis	1,309 CPM/100 mg and 1,470 CPM/100 mg	2,575 CPM/FLASK and 2,925 CPM/FLASK	
Cc1c2oc3c(C)ccc(C(=O)N[C@@H]4C(=O)N[C@H](C(C)C)C(=O)N5CCC[C@H]5C(=O)N(C)CC(=O)N(C)[C@@H](C(C)C)C(=O)O[C@@H]4C)c3nc-2c(C(=O)N[C@@H]2C(=O)N[C@H](C(C)C)C(=O)N3CCC[C@H]3C(=O)N(C)CC(=O)N(C)[C@@H](C(C)C)C(=O)O[C@@H]2C)c(N)c1=O [Actinomycin D, reference compound] (I: T[dV]P[Sar][NMeV] / II: T[dV]P[Sar][NMeV]; ester I:1-I:C, II:1-II:C; linker I:N-II:N via Actinocin(9to1))														Survival ratio T/C (survival time of test animal / control animal) ([4]; 4 μg/injection, total 20 μg): 1.9
COc1ccc2c3c(ccc2c1)C1=NCCC1(C)CC3 (stereo not shown) [Compound 5d, 1,10,11,11a-tetrahydro-7-methoxy-11a-methyl-2H-naphth[1,2-g]indole]	12,140 CPM/100 mg TISSUE	depressed glucose oxidation in vitro more than compounds 4 c and 11b	16,081 CPM/100 mg and 8,200 CPM/100 mg	32,194 CPM/FLASK and 16,539 CPM/FLASK	+17.4%	32.3	6.32	67.7	201.6	1,565 CPM/100 mg tissue	depress protein synthesis	1,585 CPM/100 mg and 1,546 CPM/100 mg	3,225 CPM/FLASK and 3,125 CPM/FLASK	Relative acid phosphatase staining ([5]; 24 h, 1 hour in substrate): none and did not stain; Relative acid phosphatase staining ([5]; 24 h, 2 hours in substrate): light; Relative acid phosphatase staining ([5]; 24 h, 3 hours in substrate): medium; staining reaction versus control ([5]; 24 h, all three substrate incubation times): identical staining reactions; staining intensity versus untreated cells ([5]; cells treated for 2 hours): indistinguishable from untreated cells; effect on the relative plating efficiency ([6]; 1 μg/ml): little effect; inhibition of growth compared with control culture ([6]; 10 and 20 μg/ml): only a very slight inhibition of growth; activity at 1 µg/mL ([6]; Homo sapiens, KB, 168 h, 1 μg/ml): 97%; activity at 10 µg/mL ([6]; Homo sapiens, KB, 168 h, 10 μg/ml): 82%; activity at 20 µg/mL ([6]; Homo sapiens, KB, 168 h, 20 μg/ml): 79%; growth rate versus control ([7]; 1 μg/ml): same growth rate as the control; growth inhibition at 20 μg/ml ([7]; 20 μg/ml): depressed the growth rate only slightly over the rate observed with 10 μg/ml; inhibition at 10 µg/mL ([7]; Mus musculus, 96 h, 10 μg/ml, fourth day, read-out: reduction in growth as compared to the control): 30%; minimal effective concentration ([7]; Mus musculus, L-M cells, 10 μg/ml or greater, read-out: concentration at which growth was inhibited): ≥ 10 µg/mL; inhibition pattern from incubated medium versus simultaneous addition ([8]; 20 μg/ml, medium pre-incubated 37° C): identical; detoxification by auto-oxidation or enzymatic (serum) processes in culture medium ([8]; 37° C): does not occur; minimal effective concentration [9]: ≥ 10 µg/mL
Oc1ccc2c3c(ccc2c1)-c1[nH]ncc1CC3 [Compound 11a, 10,11-Dihydro-3H-naphth[1,2-g]indazol-7-ol]														Survival ratio T/C (survival time of test animal / control animal) ([4]; 0.8 μg/injection, total 4 μg): 1.0
COc1ccc2c3c(ccc2c1)-c1[nH]ncc1CC3 [Compound 11b, 10,11-Dihydro-7-methoxy-3H-naphth[1,2-g]indazole]	9,550 CPM/100 mg TISSUE	comparable to saline	11,590 CPM/100 mg and 7,510 CPM/100 mg	23,529 CPM/FLASK and 15,382 CPM/FLASK		34.0	6.67	88.7	229.0	1,155 CPM/100 mg tissue	depress protein synthesis	1,194 CPM/100 mg and 1,116 CPM/100 mg	2,325 CPM/FLASK and 2,225 CPM/FLASK	
CC1(C)S[C@@H]2[C@H](NC(=O)Cc3ccccc3)C(=O)N2[C@H]1C(=O)O [penicillin, reference compound]														inhibition of growth, tested separately [10]: very slight inhibition of growth
